Experiments:
[1] = molecular target: T1, human glucocorticoid receptor (GR) complex (Homo sapiens, UniProt P04150); test: Glucocorticoid receptor competitive binding assay (fluorescence polarization, TAMRA-labeled dexamethasone probe); settings: compounds of Formula (IA)
T1 construct: made in house; host or cells: insect expression system (baculovirus lysate)
T1 sequence (P04150 1-777): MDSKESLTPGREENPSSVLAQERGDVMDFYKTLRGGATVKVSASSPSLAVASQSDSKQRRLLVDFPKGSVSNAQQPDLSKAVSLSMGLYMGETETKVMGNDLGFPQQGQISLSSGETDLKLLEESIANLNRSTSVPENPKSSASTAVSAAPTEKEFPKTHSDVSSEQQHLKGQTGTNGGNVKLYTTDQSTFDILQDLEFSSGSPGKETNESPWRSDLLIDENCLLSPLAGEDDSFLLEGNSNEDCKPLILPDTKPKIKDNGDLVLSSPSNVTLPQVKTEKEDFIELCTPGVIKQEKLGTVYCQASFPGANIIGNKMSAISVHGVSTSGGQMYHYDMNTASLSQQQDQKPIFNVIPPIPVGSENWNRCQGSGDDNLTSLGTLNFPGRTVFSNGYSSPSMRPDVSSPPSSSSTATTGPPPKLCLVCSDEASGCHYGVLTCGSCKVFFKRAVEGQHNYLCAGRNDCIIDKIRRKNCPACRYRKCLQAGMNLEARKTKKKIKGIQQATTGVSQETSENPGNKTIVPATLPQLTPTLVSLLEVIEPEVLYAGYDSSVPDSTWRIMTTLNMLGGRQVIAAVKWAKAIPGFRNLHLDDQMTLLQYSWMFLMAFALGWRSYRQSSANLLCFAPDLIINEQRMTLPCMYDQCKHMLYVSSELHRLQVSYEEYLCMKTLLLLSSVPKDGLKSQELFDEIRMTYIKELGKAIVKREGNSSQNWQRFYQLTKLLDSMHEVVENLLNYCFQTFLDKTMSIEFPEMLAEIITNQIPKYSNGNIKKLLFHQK
Summary of the method: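 Fluorescence-polarization competition against 15 nM TAMRA-dexamethasone (stock added to the mix) for human GR complex from baculovirus lysate diluted 1:170. Buffer: 10 mM TES, 50 mM KCl, 20 mM Na2MoO4, 1.5 mM EDTA, 0.04% CHAPS, 10% glycerol, 1 mM DTT, pH 7.4. IC50 from 4-parameter logistic fit.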

[2] = system: glucocorticoid receptor function; test: one or more of the above assays (GR binding and glucocorticoid receptor cell assays: aromatase, IL-6, TAT, MMTV-Luc, IL-8, ICAM-Luc); format: cell-based; settings: assay not specified per compound

Row | activity in the GR binding assay [1] | Compound | activity as agonists of the glucocorticoid receptor function in one or more of the above assays [2]
1 | potent activity | CC(C)(CC(O)(Cc1cc2ccccc2[nH]1)C(F)(F)F)c1ccccc1C(F)(F)F (stereo not drawn) [1,1,1-Trifluoro-2-(1H-indol-2-ylmethyl)-4-methyl-4-(2-trifluoromethylphenyl)pentan-2-ol] | potent agonists
2 | potent activity | Cc1ccc(C(C)(C)CC(O)(Cc2cc3ccccc3[nH]2)C(F)(F)F)cc1F (stereo not drawn) [1,1,1-Trifluoro-4-(3-fluoro-4-methylphenyl)-2-(1H-indol-2-ylmethyl)-4-methylpentan-2-ol] | potent agonists
3 | potent activity | Cc1cc(CC(O)(CC(C)(C)c2ccc(F)cc2O)C(F)(F)F)cc(C)n1 (stereo not drawn) [2-[3-(2,6-Dimethylpyridin-4-ylmethyl)-4,4,4-trifluoro-3-hydroxy-1,1-dimethylbutyl]-5-fluorophenol] | potent agonists
4 | potent activity | COc1ccc(F)cc1C(C)(C)CC(O)(Cc1cc2ncncc2[nH]1)C(F)(F)F (stereo not drawn) [1,1,1-Trifluoro-4-(5-fluoro-2-methoxyphenyl)-4-methyl-2-(5H-pyrrolo[3,2-d]pyrimidin-6-ylmethyl)pentan-2-ol] | potent agonists
5 | potent activity | Cc1cc(F)ccc1C(C)(C)CC(O)(Cc1ccnc2ccccc12)C(F)(F)F (stereo not drawn) [1,1,1-Trifluoro-4-(4-fluoro-2-methylphenyl)-4-methyl-2-quinolin-4-ylmethylpentan-2-ol] | potent agonists
6 | potent activity | CSc1ccc2[nH]c(CC(O)(CC(C)(C)c3cc(F)cc4c3OCC4)C(F)(F)F)cc2c1 (stereo not drawn) [1,1,1-Trifluoro-4-(5-fluoro-2,3-dihydrobenzofuran-7-yl)-4-methyl-2-(5-methylsulfanyl-1H-indol-2-ylmethyl)pentan-2-ol] | potent agonists
7 | potent activity | Cc1cc(C#N)cc2[nH]c(CC(O)(CC(C)(C)c3cccc4c3OCC4)C(F)(F)F)cc12 (stereo not drawn) [2-[4-(2,3-Dihydrobenzofuran-7-yl)-2-hydroxy-4-methyl-2-trifluoromethylpentyl]-4-methyl-1H-indole-6-carbonitrile] | potent agonists
8 | potent activity | Cc1cc2c(c(C(C)(C)CC(O)(Cc3cc4ccncc4[nH]3)C(F)(F)F)c1)OCC2 (stereo not drawn) [1,1,1-Trifluoro-4-methyl-4-(5-methyl-2,3-dihydrobenzofuran-7-yl)-2-(1H-pyrrolo[2,3-c]pyridin-2-ylmethyl)pentan-2-ol] | potent agonists
9 | potent activity | CC(C)(CC(O)(Cc1cc2ccc(C#N)cc2[nH]1)C(F)(F)F)c1cc(F)ccc1O (stereo not drawn) [2-[4-(5-Fluoro-2-hydroxyphenyl)-2-hydroxy-4-methyl-2-trifluoromethylpentyl]-1H-indole-6-carbonitrile] | potent agonists
10 | potent activity | COc1ccc(F)cc1C(C)(C)CC(O)(Cc1cc2ccncc2s1)C(F)(F)F (stereo not drawn) [1,1,1 -Trifluoro-4-(5-fluoro-2-methoxyphenyl)-4-methyl-2-thieno[2,3-c]pyridin-2-ylmethylpentan-2-ol] | potent agonists
11 | potent activity | COc1ccc(C(C)(C)C)cc1C(C)(C)CC(O)(Cc1[nH]c2ccccc2c1C#N)C(F)(F)F (stereo not drawn) [2-[4-(5-tert-Butyl-2-methoxyphenyl)-2-hydroxy-4-methyl-2-trifluoromethylpentyl]-1H-indole-3-carbonitrile] | potent agonists
12 | potent activity | COC(=O)CCCNC(=O)c1ccc2[nH]c(CC(O)(CC(C)(C)c3cc(F)ccc3OC)C(F)(F)F)cc2c1 (stereo not drawn) [4-({2-[4-(5-Fluoro-2-methoxyphenyl)-2-hydroxy-4-methyl-2-trifluoromethylpentyl]-1H-indole-5-carbonyl}amino)butyric acid methyl ester] | potent agonists
13 | potent activity | CC(C)(CC(O)(Cc1cc2ccncc2[nH]1)C(F)(F)F)c1cc(Cl)cc2c1OCC2 (stereo not drawn) [4-(5-Chloro-2,3-dihydrobenzofuran-7-yl)-1,1,1-trifluoro-4-methyl-2-(1H-pyrrolo[2,3-c]pyridin-2-ylmethyl)pentan-2-ol] | potent agonists
14 | potent activity | COc1ccc(C(C)C)cc1C(C)(C)CC(O)(Cc1[nH]c2ccccc2c1C#N)C(F)(F)F (stereo not drawn) [2-[2-Hydroxy-4-(5-isopropyl-2-methoxyphenyl)-4-methyl-2-trifluoromethylpentyl]-1H-indole-3-carbonitrile] | potent agonists
15 | potent activity | CC(C)(CC(O)(Cc1ccnc2ccccc12)C(F)(F)F)c1cc(F)ccc1O (stereo not drawn) [4-Fluoro-2-(4,4,4-trifluoro-3-hydroxy-1,1-dimethyl-3-quinolin-4-ylmethylbutyl)phenol] | potent agonists
16 | potent activity | COc1ccc(F)cc1C(C)(C)CC(O)(c1c(F)ccc2c(C)ccnc12)C(F)(F)F (stereo not drawn) [1,1,1-Trifluoro-4-(5-fluoro-2-methoxyphenyl)-2-(7-fluoro-4-methylquinolin-8-yl)-4-methylpentan-2-ol] | potent agonists
17 | potent activity | Cc1cc2c(c(C(C)(C)CC(O)(Cc3cc4cnccc4[nH]3)C(F)(F)F)c1)OCC2 (stereo not drawn) [1,1,1-Trifluoro-4-methyl-4-(5-methyl-2,3-dihydrobenzofuran-7-yl)-2-(1H-pyrrolo[3,2-c]pyridin-2-ylmethyl)pentan-2-ol] | potent agonists
18 | potent activity | CC(C)(CC(O)(Cc1cc2ccccc2[nH]1)C(F)(F)F)c1cc(F)ccc1OC(F)F (stereo not drawn) [4-(2-Difluoromethoxy-5-fluorophenyl)-1,1,1-trifluoro-2-(1H-indol-2-ylmethyl)-4-methylpentan-2-ol] | potent agonists
19 | potent activity | CN(C)c1ccc(C(C)(C)CC(O)(Cc2ccnc3ccccc23)C(F)(F)F)cc1 (stereo not drawn) [4-(4-Dimethylaminophenyl)-1,1,1-trifluoro-4-methyl-2-quinolin-4-ylmethylpentan-2-ol] | potent agonists
20 | potent activity | Cc1cc(CC(O)(CC(C)(C)c2cc(F)ccc2O)C(F)(F)F)c2ccccc2n1 (stereo not drawn) [4-Fluoro-2-[4,4,4-trifluoro-3-hydroxy-1,1-dimethyl-3-(2-methylquinolin-4-ylmethyl)butyl]phenol] | potent agonists
21 | potent activity | COc1ccc(C)cc1C(C)(C)CC(O)(Cc1ccnc2ccccc12)C(F)(F)F (stereo not drawn) [1,1,1-Trifluoro-4-(2-methoxy-5-methylphenyl)-4-methyl-2-quinolin-4-ylmethylpentan-2-ol] | potent agonists
22 | potent activity | COc1ccc(F)cc1C(C)(C)CC(O)(Cc1ccnc2c(C)cc(C)cc12)C(F)(F)F (stereo not drawn) [2-(6,8-Dimethylquinolin-4-ylmethyl)-1,1,1-trifluoro-4-(5-fluoro-2-methoxyphenyl)-4-methylpentan-2-ol] | potent agonists
23 | potent activity | CC(C)(CC(O)(Cc1cc(Cl)nc2ccc(Cl)cc12)C(F)(F)F)c1cc(F)ccc1O (stereo not drawn) [2-[3-(2,6-Dichloroquinolin-4-ylmethyl)-4,4,4-trifluoro-3-hydroxy-1,1-dimethylbutyl]-4-fluorophenol] | potent agonists
24 | potent activity | CN(C)Cc1cccc(C(C)(C)CC(O)(Cc2cc3cc(C#N)ccc3[nH]2)C(F)(F)F)c1 (stereo not drawn) [2-[4-(3-Dimethylaminomethylphenyl)-2-hydroxy-4-methyl-2-trifluoromethylpentyl]-1H-indole-5-carbonitrile] | potent agonists
